In patent US10391134B2, “Anti-candida compositions and uses thereof” (PharmAlp SA, priority 2014, dated 2019):

Tests used:
Type in all cases: cell-based
[1] = system: human vaginal epithelial cells; experiment: Neutral red screening of human cytotoxicity; conditions: 24 h incubation; positive control and validation component
Experimental: Potential cytotoxicity of the extracts was assayed in the neutral red-screening test using human vaginal epithelial cells at 80% confluence corresponding to 2*10^5 cells per well of 96 wells as follows:
The extracts freshly extracted and stored once frozen were incubated for 24 h with the epithelial cells at different concentrations. At the end of the experiment the cells were washed 3× and incubated with Neutral Red (NR) medium (50 μg/ml) for 3 hours at 37° C., 5.0% CO2/air. A water solution at 0.5% ethanol was used as negative control (present in all samples). […] Cells were then washed and NR quantified. 100% staining intensity indicate intact lysosomal activity. 0% indicates little to no survival of human cells. Results were analysed according to the Hill function. IC50 or concentrations with highest impairment of cell survival were determined.
Desorb solution was prepared in a ratio of water-ethanol-acetic acid glacial (49:50:1; v:v) during 20 min with shaking. Wavelength used for spectrophotometric reading of NR optical density was 540 nm. Test Criteria were that the differences between VC mean; R2>0.85; Point >0%<100%. The results are presented on FIG. 4.

[2] = system: Candida albicans cells (ATCC MYA-2876); experiment: Candida growth test (MIC, visual turbidity score)
Experimental: Candida albicans cells (ATCC MYA-2876) were incubated in SB (Sabouraud broth, Biolife 4020002) for 24 h at 30° C. and 150 rpm. The obtained culture was enumerated with a Neubauer Improved count chamber and concentration adjusted to 2.5·10^3 cfu/ml by dilution with sterile SB. Vaginal cells (End1/E6E7, ATCC CRL-2615) have been grown in Keratinocyte SFM (Gibco 17005-42) with 0.1 ng/ml human recombinant EGF (Gibco 10450-013), 0.05 mg/ml bovine pituitary extract (Gibco 13028-014) and additional calcium chloride 44.1 mg/L according to instructions by the provider, with media change every 2-3 days.
Minimal inhibitory concentration (MIC) of the plant extracts and antifungal substances was accomplished through tissue culture plates of 96 wells with flat bottom (Becton Dickinson). In each well 100 μl of the 2.5·10^3 cfu/ml Candida albicans culture obtained as described above in SB was mixed with 100 μl plant extract of different concentrations (0.025, 0.083, 0.25, 0.83, 2.5 and 8.3 mg/ml). Together with each dilution series a blank well was prepared with 100 μl culture and 100 μl of 5% ethanol-water solution. Fluconazole (Sigma, F8929) has been taken as positive control. Fluconazole solutions of different concentrations (4, 16, 32, 65, 650 μg/ml) have been freshly prepared prior testing. A well with only broth (100 μl) plus water (100 μl) and a well with broth plus plant extract (100 μl) were also prepared for color control. The plate was then incubated at 37° C. for 24 h and 48 h.
The evaluation of the growth inhibitory activities was conducted by visual observation of the turbidity of the wells and by attribution of a score from 0 (no growth) to 4 (maximal growth, similar to control well). MIC value of a substance is defined as the concentration which permits to reach a score of less than […]. […] In fact, the score of 2 represents an inhibition of Candida concentrations of about 80%. Results are presented on FIG. 2. […]

[3] = system: Candida albicans adhesion on human vaginal epithelial cells (End1/E6E7); experiment: Inhibitory activity on Candida adhesion on human vaginal epithelial cells
Experimental: A tissue culture plate of 24 wells was prepared with vaginal epithelial cells. 0.5 ml of a culture of 10^5 cells/ml in keratinocyte SFM were put in each well of a 24-well plate and incubated for 2 days at 37° C. and 5% CO2. Each well was filled (after taking away the vaginal cells growth media) with 1 ml C. albicans culture of 5·10^6 cfu/ml mixed with test substance. As control, the solvent of each test substance was also tested. The plate was incubated at 37° C. for 6 h or 2 h ([…] for Example 2, 2 h for Example 4), permitting Candida cells to adhere to vaginal cells. After incubation the Candida culture was pipetted away from each well, which were then washed 3 times with 0.5 ml PBS. The epithelial cells-Candida layer was treated with a 0.05% trypsin solution (concentration of 1 ml/25 cm^2), which was then neutralized by addition of DMEM with 10% FCS. […] The obtained cell solution was diluted and analyzed with pour plate method (Manuel Suisse des denrées alimentaires, Chapitre 56, 2000, revision partielle 2004): 1 ml of the appropriate dilution was pipetted into an empty Petri dish and about 15-20 ml of SDA, cooled down to 45-50° C., poured over it.
After 24 h incubation at 37° C. the colonies were counted and the result (in cfu/ml) multiplied 1.5 times to obtain the number of adhered cell in each well. […]

**Q.** Which “IC50 neutral red cytotoxicity” value [1] does the source give for `CCCCCCCCCCCCOS(=O)(=O)[O-].[Na+]` [SDS] here?
**A.** The value was 8 to 25 µg/mL.

**Q.** Which results are given for `OC(Cn1cncn1)(Cn1cncn1)c1ccc(F)cc1F` [fluconazole]?
**A.** Stability of the growth inhibition effect, 24 h versus 48 h ([2]; Example 1, 24 h and 48 h of treatment): maximal effect at 24 h and reduced effects at 48 h; Candida growth score (arbitrary unit, 0 no growth to 4 maximal growth) ([2]; after 48 h incubation, 2 separate runs): 2 to 3 arbitrary unit; Inhibition of Candida growth ([2]; all 5 concentrations applied (4, 16, 32, 65, 650 μg/ml)): inhibited Candida growth to a similar degree; Adhesion of Candida, average value (100% = control) ([3]; Example 1, fluconazole at 1 mg/ml, 6 hour incubation): 100%

**Q.** With Pepstatin A as the compound, how does the “% inhibition (adhesion of Candida albicans to human epithelial cells)” value ([3]; Table 3, at 1 μM) read?
**A.** The value was 5 (at 1 μM) %.
